# Key:
# [1] = system: facial skin in the crow's feet area; assay: Ultrasound measurement of density of the facial skin, 12 week clinical study; assay type: in vivo, human; conditions: for Ultrasound Density Mean: Baseline mean 18.55
# Source text: (§1) Ultrasound measurements were taken on the left side of each subject's face to measure density of the facial skin in the crow's feet area. Measurements were taken with the probe oriented perpendicular to the body axis while the subjects were resting supine on a padded patient table. All clinical and corneometer measurements and evaluations were taken at baseline, week 1 (visit 2), week 4 (visit 3), week 8 (visit 4) and week 12 (visit 5). Ultrasound and cutometer measurements and evaluations were taken at baseline, week 4 (visit 3), week 8 (visit 4) and week 12 (visit 5). Completed patient's diaries were reviewed for compliance at each visit. Mean clinical grading and instrumentation scores at each visit were statistically compared to baseline scores using paired t-test. Changes from baseline were considered significant at the p≦0.05 level. Mean percent change from baseline and incidence of positive responders were calculated for all attributes. Comparisons, based on the average from baseline, were made between the test materials using analysis of variance (ANOVA).
# facial skin = assay: Cutometer measurement of extensibility of the skin, 12 week clinical study; assay type: in vivo, human; conditions: for Cutometer Extensibility Mean: Baseline mean 1.15
# Source text: as §1, with “A single cutometer measurement was taken” for “Ultrasound measurements were taken”, “the right” for “the left”, “of the” for “of each”, “subject's face, in line with the corner of the eye and the edge of the nostril,” for “subject's face”, “measure the extensibility” for “measure density”, “the skin.” for “the facial skin in the crow's feet area. Measurements were taken with the probe oriented perpendicular to the body axis while the subjects were resting supine on a padded patient table.”
smiles,measurement,setting,value
"OCc1ccccc1O[C@@H]1O[C@H](CO)[C@@H](O)[C@H](O)[C@H]1O [Salicin, 2-(Hydroxymethyl)phenyl β-D-glucospyranoside]",Ultrasound Density Mean,[1]; Week 4,21.38
same,Ultrasound Density % Change,[1]; Week 4 vs Baseline,(15.2%)
same,Ultrasound Density Mean,[1]; Week 8,23.52
same,Ultrasound Density % Change,[1]; Week 8 vs Baseline,(26.7%)
same,Ultrasound Density Mean,[1]; Week 12,25.21
same,Ultrasound Density % Change,[1]; Week 12 vs Baseline,(35.8%)
same,Cutometer Extensibility Mean,facial skin; Week 4,1.17
same,Cutometer Extensibility % Change,facial skin; Week 4 vs Baseline,(1.8%)
same,Cutometer Extensibility Mean,facial skin; Week 8,1.17
same,Cutometer Extensibility % Change,facial skin; Week 8 vs Baseline,(1.3%)
same,Cutometer Extensibility Mean,facial skin; Week 12,1.26
same,Cutometer Extensibility % Change,facial skin; Week 12 vs Baseline,(9.6%)
